Experimental findings from PMC6739136 (Neuropeptides, 2019) are described below.

Structures are written as SMILES.

In the test the test system is urinary bladder pressure, anesthetized minipigs. Description: Cystometry. The format is in vivo, minipig (Gottingen, Sinclair). The conditions noted are these: GR 159897 1 mg/kg IV, 15 min prior to LMN-NKA, N=2, anesthetized minipigs, DT-063.

Take `COC1(C[S@@+]([O-])c2ccccc2)CCN(CCc2c[nH]c3ccc(F)cc23)CC1` [GR 159897, 5-Fluoro-3-[2-[4-methoxy-4-[[(R)-phenylsulphinyl]methyl]-1-piperidinyl]ethyl]-1H-indole]: the “effect on increase in bladder pressure induced by 100 μg/kg SC of LMN-NKA” value is “blocked”.
